In article PMC8764865, “Activity-based protein profiling reveals dynamic substrate-specific cellulase secretion by saprotrophic basidiomycetes” (Biotechnology for Biofuels and Bioproducts, 2022):

Legend:
Assay type in all cases: biochemical
LsGH10A [1] = target: T1, LsGH10A (Trametes sp., UniProt Z9JQD7XB80); assay: continuous fluorogenic inhibition kinetics (4-methylumbelliferyl glycoside); conditions: non-covalent; no covalent inhibition discernible after 1 h; 50 mM NaOAc pH 4.0 final; inhibition assay, printed only as affinity
T1 construct: native signal peptide removed (alpha-factor secretion signal), C-terminal 6xHis, codon-optimised, Pichia pastoris X-33; later-eluting Superdex 200 peak

TlGH12A = target: T2, TlGH12A (Pilatotrama ljubarskyi, UniProt Z9OT85M9A7); assay: continuous fluorogenic inhibition kinetics, 4MU-GG substrate; conditions: covalent, time-dependent; up to 50 uM inhibitor; 0.4 mM substrate stock mixed 1:1; NaOAc pH 4.0
T2 construct: native signal peptide removed (alpha-factor secretion signal), C-terminal 6xHis, codon-optimised, Pichia pastoris X-33
T2 sequence (Z9OT85M9A7 1-225): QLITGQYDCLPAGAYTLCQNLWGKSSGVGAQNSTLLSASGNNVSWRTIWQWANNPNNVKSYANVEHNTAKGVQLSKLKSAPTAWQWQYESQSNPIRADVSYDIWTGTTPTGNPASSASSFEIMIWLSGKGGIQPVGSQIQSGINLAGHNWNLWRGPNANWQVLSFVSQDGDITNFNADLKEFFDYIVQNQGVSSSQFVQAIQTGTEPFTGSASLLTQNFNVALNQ

LsGH10A [2] = target: T1, LsGH10A; assay: as above; conditions: covalent, time-dependent; up to 50 uM inhibitor; 0.4 mM substrate stock mixed 1:1; NaOAc pH 4.0
LsGH5_5A = target: T3, LsGH5_5A (Trametes sp., UniProt Z9YXY2URI3); assay: as above; conditions: covalent, time-dependent; up to 50 uM inhibitor; 0.4 mM substrate stock mixed 1:1; NaOAc pH 4.0
T3 construct: native signal peptide removed (alpha-factor secretion signal), C-terminal 6xHis (intact), codon-optimised, Pichia pastoris X-33
T3 sequence (Z9YXY2URI3 1-398): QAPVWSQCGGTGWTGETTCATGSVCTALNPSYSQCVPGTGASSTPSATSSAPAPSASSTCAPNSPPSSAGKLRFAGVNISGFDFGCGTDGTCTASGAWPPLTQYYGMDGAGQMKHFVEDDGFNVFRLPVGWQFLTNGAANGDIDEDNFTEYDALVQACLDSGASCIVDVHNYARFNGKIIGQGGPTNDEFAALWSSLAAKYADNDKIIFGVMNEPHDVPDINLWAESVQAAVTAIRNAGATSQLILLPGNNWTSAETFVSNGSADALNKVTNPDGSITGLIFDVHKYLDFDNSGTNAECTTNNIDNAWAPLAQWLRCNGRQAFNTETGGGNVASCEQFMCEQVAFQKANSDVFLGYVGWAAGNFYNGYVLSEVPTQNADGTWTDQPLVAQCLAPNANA

SMILES	Ki (LsGH10A [1])	ki/KI (TlGH12A)	ki/KI (LsGH10A [2])	ki/KI (LsGH5_5A)
O=C(CCCC[C@@H]1SC[C@@H]2NC(=O)N[C@@H]21)NCCCCCCCCN1[C@H]2[C@H](O)[C@@H](O)[C@H](O[C@@H]3OC[C@@H](O)[C@H](O)[C@H]3O)C[C@H]21 (stereo partly shown) [Biotin-ABP-Xyn]	21 nM			
OC[C@H]1[C@H]2O[C@H]2[C@H](O)[C@@H](O)[C@@H]1O[C@@H]1O[C@H](CO)[C@@H](O)[C@H](O)[C@H]1O [GGcyc]		clear time-dependent inhibition of LsGH5_5A, TlGH12A, and LsGH10A by GGcyc	clear time-dependent inhibition of LsGH5_5A, TlGH12A, and LsGH10A by GGcyc	clear time-dependent inhibition of LsGH5_5A, TlGH12A, and LsGH10A by GGcyc
